Laboratory results published in article PMC12207590, “Substrate Specificity of the Organic Cation Transporters MATE1 and MATE2K and Functional Overlap with OCT1 and OCT2” (Journal of Medicinal Chemistry, 2025).
Like-named read-outs stand apart in the source and are kept apart here.

Legend:
[1] = target: T1, MATE1 (Homo sapiens, UniProt Q96FL8); experiment: Uptake ratio in MATE1-overexpressing HEK293 cells vs empty vector (2.5 μM, 1 min, HPLC-MS/MS); format: cell-based; conditions: for MATE1 (uptake ratio): mean ratio of uptake in MATE1-overexpressing HEK293 cells vs empty vector; for MATE1: uptake ratio MATE1-overexpressing vs empty-vector HEK293 cells, mean
T1 sequence (Q96FL8 1-570): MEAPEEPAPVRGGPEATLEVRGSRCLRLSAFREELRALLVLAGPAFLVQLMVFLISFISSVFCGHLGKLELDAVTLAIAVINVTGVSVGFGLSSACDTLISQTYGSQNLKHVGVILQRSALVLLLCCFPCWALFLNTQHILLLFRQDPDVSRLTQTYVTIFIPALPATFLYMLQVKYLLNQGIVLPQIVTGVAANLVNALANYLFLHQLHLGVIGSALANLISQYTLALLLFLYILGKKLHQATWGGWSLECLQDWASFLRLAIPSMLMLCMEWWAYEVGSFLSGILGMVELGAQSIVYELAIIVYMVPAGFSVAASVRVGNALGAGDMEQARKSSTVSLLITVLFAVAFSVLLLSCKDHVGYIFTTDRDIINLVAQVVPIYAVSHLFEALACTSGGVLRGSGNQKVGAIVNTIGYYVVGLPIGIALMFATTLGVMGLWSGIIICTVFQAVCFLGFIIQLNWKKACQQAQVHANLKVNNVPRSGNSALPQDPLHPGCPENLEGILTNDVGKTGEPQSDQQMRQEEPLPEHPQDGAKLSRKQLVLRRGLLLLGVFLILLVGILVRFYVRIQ

[2] = target: T2, MATE2K (Homo sapiens, UniProt Q86VL8); experiment: Uptake ratio in MATE2K-overexpressing HEK293 cells vs empty vector (2.5 μM, 1 min, HPLC-MS/MS); format: cell-based; conditions: for MATE2 (uptake ratio): mean ratio of uptake in MATE2K-overexpressing HEK293 cells vs empty vector; for MATE2: uptake ratio MATE2K-overexpressing vs empty-vector HEK293 cells, mean
[3] = cited from earlier work
[4] = test system: hCMEC; experiment: TS DPH hCMEC (Table S2); format: cell-based, human; parameters: scale not given here; conditions: Table S2
[5] = test system: hCMEC; experiment: TS MDAI hCMEC (Table S2); format: cell-based, human; parameters: scale not given here; conditions: Table S2
[6] = target: T1, MATE1; experiment: Concentration-dependent uptake (Michaelis-Menten) via MATE1 in HEK293 cells; conditions: for Km: read-out: MATE1 KM
[7] = target: T2, MATE2K; experiment: Concentration-dependent uptake (Michaelis-Menten) via MATE2K in HEK293 cells; conditions: HEK293, 1 min, net uptake; for Km: read-out: MATE2K KM
[8] = test system: MATE1, MATE2K, OCT1, OCT2; experiment: Substrate specificity and overlap among the four transporters (ratio cutoff 2); format: cell-based, human; conditions: transport ratio cutoff of 2
[9] = target: T1, MATE1
[10] = fold uptake over empty vector, 2.5 μM, 1 min

T2 sequence (Q86VL8 1-566 isoform Q86VL8-3): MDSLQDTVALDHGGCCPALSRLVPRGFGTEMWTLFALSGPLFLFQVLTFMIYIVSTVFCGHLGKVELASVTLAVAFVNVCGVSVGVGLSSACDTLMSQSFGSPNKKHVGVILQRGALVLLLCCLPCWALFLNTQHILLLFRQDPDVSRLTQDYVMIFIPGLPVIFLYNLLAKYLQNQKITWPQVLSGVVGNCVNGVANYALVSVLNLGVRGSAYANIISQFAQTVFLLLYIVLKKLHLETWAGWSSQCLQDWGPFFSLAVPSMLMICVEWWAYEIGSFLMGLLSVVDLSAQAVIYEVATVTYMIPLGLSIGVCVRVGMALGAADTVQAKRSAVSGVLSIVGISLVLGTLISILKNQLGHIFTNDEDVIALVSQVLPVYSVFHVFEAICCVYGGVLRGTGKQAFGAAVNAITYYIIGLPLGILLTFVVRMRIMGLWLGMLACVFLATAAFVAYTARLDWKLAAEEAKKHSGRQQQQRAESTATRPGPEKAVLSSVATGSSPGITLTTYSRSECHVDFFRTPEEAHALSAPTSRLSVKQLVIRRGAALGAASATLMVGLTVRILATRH

Row | SMILES | MATE1 ratio [1, 10] | MATE2K ratio [2, 10] | MATE2K Vmax [7] | Km [7] [µM] | eliminated unchanged via the kidneys ([3]; human) | TS DPH hCMEC [4] | TS MDAI hCMEC [5] | further results
1 | Nc1ccncc1N [Amifampridine] | 17.06 | 7.01 | – | – | more than 70% | – | – | MATE1 ratio ([1]; fold uptake over empty vector, 2.5 μM, 1 min, listed as amifampridine): above 2; MATE1 (uptake ratio) ([1]; 2.5 μM, 1 min): 17.06; MATE2 (uptake ratio) ([2]; 2.5 μM, 1 min): 7.01
2 | CC(C)NCC(O)COc1ccc(COCCOC(C)C)cc1 (stereo not drawn) [Bisoprolol] | – | – | – | – | 50% | 0.32 | 0.35 | –
3 | CC[N+](C)(C)c1cccc(O)c1 [Edrophonium] | 30.33 | 10.98 | – | – | – | – | – | MATE1 ratio ([1]; fold uptake over empty vector, 2.5 μM, 1 min, listed as edrophonium): above 2; eliminated unchanged via the kidneys ([3]; in vivo): more than 70%
4 | CN(C)C(=O)Oc1cccc([N+](C)(C)C)c1 [Neostigmine] | – | – | 3139 pmol × mg protein^–1 × min^–1 | 385 | – | – | – | MATE1 ratio [1]: 32.31; MATE2K ratio [2]: 5.31; Substrate specificity among MATE1, MATE2K, OCT1, OCT2 [8]: All four transporters; Km [9]: 160 µM; MATE1 Clint ([9]; human, pH 7.4): 45.2 μL × mg protein^–1 × min^–1; MATE1 Vmax [6]: 7255 pmol × mg protein^–1 × min^–1
5 | N[C@@H](CC(=O)N1CCn2c(nnc2C(F)(F)F)C1)Cc1cc(F)c(F)cc1F [Sitagliptin] | 4.17 | 2.77 | – | – | more than 70% | – | – | MATE1 ratio ([1]; fold uptake over empty vector, 2.5 μM, 1 min, listed as sitagliptin): above 2; MATE1 ([1]; 2.5 μM, 1 min): 4.17; MATE2 ([2]; 2.5 μM, 1 min): 2.77

Further lines, with some results ahead:

Row | MATE1 ratio [1, 10] | MATE2K ratio [2, 10] | MATE2K Vmax [7] | Km [7] [µM] | SMILES | eliminated unchanged via the kidneys ([3]; human) | TS DPH hCMEC [4] | TS MDAI hCMEC [5] | further results
6 | 11.04 | 11.15 | 710 pmol × mg protein^–1 × min^–1 | 39.9 | CCN1CCCC1CNC(=O)c1cc(S(=O)(=O)CC)c(N)cc1OC (stereo not drawn) [Amisulpride] | more than 70% | 0.89 | 0.91 | MATE1 ratio ([1]; fold uptake over empty vector, 2.5 μM, 1 min, listed as amisulpride): above 2; MATE1 (uptake ratio) ([1]; 2.5 μM, 1 min): 11.04; MATE2 (uptake ratio) ([2]; 2.5 μM, 1 min): 11.15; MATE1 Vmax ([6]; HEK293, 1 min, net uptake): 238 pmol × mg protein^–1 × min^–1; Km ([6]; HEK293, 1 min, net uptake): 10.6 µM
7 | 18.76 | 4.59 | 2814 pmol × mg protein^–1 × min^–1 | 81.6 | C[C@H]1N=C(N(C)C)N=C(N)N1 [Imeglimin] | more than 70% | – | – | MATE1 ratio in this study ([1]; Table S1, 2.5 μM, 1 min): 18.76; MATE1 ratio ([1]; fold uptake over empty vector, 2.5 μM, 1 min, listed as imeglimin): above 2; MATE2K ratio in this study ([2]; Table S1, 2.5 μM, 1 min): 4.59; MATE1 Vmax ([6]; HEK293, 1 min, net uptake): 6242 pmol × mg protein^–1 × min^–1; Km ([6]; HEK293, 1 min, net uptake): 58 µM
8 | 18.91 | 8.62 | – | – | CNC(=C[N+](=O)[O-])NCCSCc1ccc(CN(C)C)o1 [Ranitidine] | more than 70% | 1.26 | 1.24 | MATE1 ratio ([1]; fold uptake over empty vector, 2.5 μM, 1 min, listed as ranitidine): above 2; MATE1 ([1]; 2.5 μM, 1 min): 18.91; MATE2 ([2]; 2.5 μM, 1 min): 8.62
